Experimental data from patent US6384261B1, “Phosphoramidates, phosphinic amides and related compounds and the use thereof to modulate the activity of endothelin” (Texas Biotechnology Corporation, priority 1996, dated 2002).
Read-outs that look alike come from different tables or passages of the source.

What was measured:
human ETA receptors = molecular target: T1, human ETA receptors (Homo sapiens, UniProt P25101); assay: Binding Test #1: inhibition of 125I-endothelin-1 binding to ETA receptors (TE 671 cell membranes)
T1 construct: endogenous in cells; host or cells: TE 671 cells (ATCC HTB 139), membrane preparation
T1 sequence (P25101 21-427): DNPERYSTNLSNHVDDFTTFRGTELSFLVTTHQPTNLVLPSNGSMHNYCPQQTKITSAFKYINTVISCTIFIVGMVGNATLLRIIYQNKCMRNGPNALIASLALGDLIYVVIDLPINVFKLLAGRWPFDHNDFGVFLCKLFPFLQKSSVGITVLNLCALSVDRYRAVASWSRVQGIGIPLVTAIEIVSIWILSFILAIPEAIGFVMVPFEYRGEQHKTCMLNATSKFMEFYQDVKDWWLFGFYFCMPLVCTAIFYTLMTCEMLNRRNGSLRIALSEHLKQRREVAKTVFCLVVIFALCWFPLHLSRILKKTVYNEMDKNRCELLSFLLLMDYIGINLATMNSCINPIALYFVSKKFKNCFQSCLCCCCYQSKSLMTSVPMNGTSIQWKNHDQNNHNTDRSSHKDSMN
From the text: (§1) Compounds that are potential endothelin antagonists are identified by testing their ability to compete with ^125I-labeled ET-1 for binding to human ETA receptors or ETB receptors present on isolated cell membranes. The effectiveness of the test compound as an antagonist or agonist of the biological tissue response of endothelin can also be assessed by measuring the effect on endothelin induced contraction of isolated rat thoracic aortic rings. The ability of the compounds to act as antagonists or agonists for ETB receptors can be assessed by testing the ability of the compounds to inhibit endothelin-1 induced prostacyclin release from cultured bovine aortic endothelial cells.
TE 671 cells (ATCC Accession No. HTB 139) express ETA receptors. These cells were grown to confluence in T-175 flasks. Cells from multiple flasks were collected by scraping, pooled and centrifuged for 10 min at 190×g. The cells were resuspended in phosphate buffered saline (PBS) containing 10 mM EDTA using a Tenbroeck homogenizer. The suspension was centrifuged at 4° C. at 57,800×g for 15 min, the pellet was resuspended in 5 ml of buffer A (5 mM HEPES buffer, pH 7.4 containing aprotinin (100 KIU/ml)) and then frozen and thawed once. 5 ml of Buffer B (5 mM HEPES Buffer, pH 7.4 containing 10 mM MnCl2 and 0.001% deoxyribonuclease Type 1) was added, the suspension mixed by inversion and then incubated at 37° C. for 30 minutes. The mixture was centrifuged at 57,800×g as described above, the pellet washed twice with buffer A and then resuspended in buffer C (30 mM HEPES buffer, pH 7.4 containing aprotinin (100 KIU/ml) to give a final protein concentration of 2 mg/ml and stored at −70° C. until use.
The membrane suspension was diluted with binding buffer (30 mM HEPES buffer, pH 7.4 containing 150 mM NaCl, 5 mM MgCl2, 0.5% Bacitracin) to a concentration of 8 μg/50 μl. ^125I-endothelin-1 (3,000 cpm, […]) was added to 50 μL of either: (A) endothelin-1 (for non specific binding) to give a final concentration 80 nM); (B) binding buffer for total binding); or (C) a test compound (final concentration 1 nM to 100 μM). The membrane suspension (50 μL), containing up to 8 μg of membrane protein, was added to each of (A), (B), or (C). Mixtures were shaken, and incubated at 4° C. for 16-18 hours, and then centrifuged at 4° C. for 25 min at 2,500×g. Alternatively, the incubation can be conducted at other temperatures, such as 24° C. When incubated at 24° C., the IC50 concentrations are 2- to 10-fold higher than when the incubation is conducted at 4° C.
The supernatant, containing unbound radioactivity, was decanted and the pellet counted on a Genesys multiwell gamma counter. The degree of inhibition of binding (D) was calculated according to the following equation: [formula]
Each test was generally performed in triplicate.

human ETB receptor = molecular target: T2, human ETB receptor (Homo sapiens, UniProt P24530); assay: Binding Test #2: inhibition of 125I-endothelin-1 binding to ETB receptors (transfected COS7 cell membranes)
T2 construct: expressed in transfected cells; host or cells: COS7 cells, membrane preparation
T2 sequence (P24530 27-442): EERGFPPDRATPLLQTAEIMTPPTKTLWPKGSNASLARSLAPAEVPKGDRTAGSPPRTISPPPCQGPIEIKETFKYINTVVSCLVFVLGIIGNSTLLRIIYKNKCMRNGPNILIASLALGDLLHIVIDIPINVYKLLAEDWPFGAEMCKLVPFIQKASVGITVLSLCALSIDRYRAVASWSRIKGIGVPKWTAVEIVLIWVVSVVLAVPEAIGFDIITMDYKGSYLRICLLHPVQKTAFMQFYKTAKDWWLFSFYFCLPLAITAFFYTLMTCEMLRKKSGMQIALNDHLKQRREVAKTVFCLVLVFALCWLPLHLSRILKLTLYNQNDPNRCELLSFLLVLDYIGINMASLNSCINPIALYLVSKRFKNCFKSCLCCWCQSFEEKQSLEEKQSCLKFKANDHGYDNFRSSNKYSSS
From the text: as §1
COS7 cells were transfected with DNA encoding the ETB receptor, The resulting cells, which express the human ETB receptor, were grown to confluence in T-150 flasks. Membrane was prepared as described above. The binding assay was performed as described above using the membrane preparation diluted with binding buffer to a concentration of 1 μg/50 μl.
Briefly, the COS7 cells, described above, that had been transfected with DNA encoding the ETB receptor and express the human ETB receptor on their surfaces were grown to confluence in T-175 flasks. Cells from multiple flasks were collected by scraping, pooled and centrifuged for 10 min at 190×g. The cells were resuspended in phosphate buffered saline (PBS) containing 10 mM EDTA using a Tenbroeck homogenizer. The suspension was centrifuged at 4° C. 57,800×g for 15 min, the pellet was resuspended in 5 ml of buffer A (5 mM HEPES buffer, pH 7.4 containing aprotinin (100 KIU/ml)) and then frozen and thawed once. Five ml of Buffer B (5 mM HEPES Buffer, pH 7.4 containing 10 mM MnCl2 and 0.001% deoxyribonuclease Type 1) was added, the suspension mixed by inversion and then incubated at 37° C. for 30 minutes. The mixture was centrifuged at 57,800×g as described above, the pellet washed twice with buffer A and then resuspended in buffer C (30 mM HEPES buffer, pH 7.4 containing aprotinin (100 KIU/ml) to give a final protein concentration of 2 mg/ml.
The binding assay was performed as described above using the membrane preparation diluted to give 1 μg/50 μl of binding buffer.

ETB receptors = conditions: concentrations up to 100 μM; cited from earlier work
ETA receptor = conditions: read-out: IC50, inhibition of 125I-labelled endothelin-1 binding, cited from earlier work
ETA and ETB receptors = assay: Summary statements on IC50 for ETA and ETB receptors / endothelin antagonist activity; assay type: binding, human; conditions: ETA versus ETB
From the text: as §1
The membrane suspension was diluted with binding buffer (30 mM HEPES buffer, pH 7.4 containing 150 mM NaCl, 5 mM MgCl2, 0.5% Bacitracin) to a concentration of 8 μg/50 μl. ^125I-endothelin-1 (3,000 cpm, […]) was added to 50 μL of either: (A) endothelin-1 (for non specific binding) to give a final concentration 80 nM); (B) binding buffer for total binding); or (C) a test compound (final concentration 1 nM to 100 μM). The membrane suspension (50 μL), containing up to 8 μg of membrane protein, was added to each of (A), (B), or (C). […]
The IC50 for each of the compounds of the preceding Examples for ETA and ETB receptors has been measured. […]

isolated vascular strips = conditions: read-out: EC50, contractile agent; cited from earlier work
[1] = incubation at 4° C., results generally from 1, 2, or 3 experiments, read-out: ETA (μM) IC50
[2] = incubation at 4° C., results generally from 1, 2, or 3 experiments, read-out: ETB (μM) IC50

Work on `Cc1noc(NP(=O)(c2ccccc2)c2ccccc2)c1Br` [N-(4-bromo-3-methyl-5-isoxazolyl)diphenylphosphinic Amide] yielded an IC50 (human ETA receptors; [1]) of 0.84 µM and an IC50 (human ETB receptor; [2]) of 85 µM.

For “cyclo(D-Glu-L-Ala-allo-D-lle-L-Leu-D-Trp) [BE-18257B]”, the “inhibition of binding to receptors in tissues in which ETB receptors predominate” value (ETB receptors) is listed as “fails to inhibit binding”, the IC50 (ETA receptor; aortic smooth muscle) is listed as 1400 nM and the IC50 (ETA receptor; cultured aortic smooth muscle cells) is listed as 500 nM. For the same compound, the IC50 (ETA receptor; ventricle membranes) was 800 nM.

In the case of `Cc1noc(NP(=O)(c2ccccc2)c2ccccc2)c1C` [N-(3,4-dimethyl-5-isoxazolyl)diphenylphosphinic Amide], the IC50 (human ETA receptors; [1]) is reported as 7.1 µM and the IC50 (human ETB receptor; [2]) is reported as greater than 100 µM.

In the case of `Cc1noc(NP(=O)(Oc2ccccc2)Oc2ccccc2)c1Br` [N-(4-bromo-3-methyl-5-isoxazolyl)diphenylphosphoramidate], the IC50 (human ETA receptors) is reported as 0.58 µM, the IC50 (human ETB receptor) is reported as 77 µM and the “IC50 for ETA receptors substantially less than for ETB receptors (selectivity)” value (ETA and ETB receptors) is reported as 10 to 100 fold.

In the case of `CCOP(=O)(Nc1onc(C)c1Br)OCC` [N-(4-bromo-3-methyl-5-isoxazolyl)diethylphosphoramidate], the IC50 (human ETA receptors) is reported as 20 µM and the IC50 (human ETB receptor) is reported as greater than 100 µM.

In the case of “endothelin-1: potent twenty-one amino acid peptide vasoconstrictor”, the EC50 (isolated vascular strips) is given as 0.4 nM.

`Cc1noc(NP(=O)(Oc2ccccc2)Oc2ccccc2)c1C` [N-(3,4-dimethyl-5-isoxazolyl)diphenylphosphoramidate] gave an IC50 (human ETA receptors) of 2.5 µM and an IC50 (human ETB receptor) greater than 100 µM.
